# Reference: patent US12678423B2, “Therapeutic agent for amyotrophic lateral sclerosis and composition for treatment” (KEIO UNIVERSITY, priority 2016, dated 2026)
# Experiments:
# Type in all cases: cell-based, human
# [1] = test system: motor neurons induced to differentiate from iPS cells derived from ALS patients (FUS-ALS) having a mutation in FUS; experiment: LDH leakage ratio, FUS-ALS motor neurons
# Protocol: (§1) The leakage amount of LDH into the medium is an indicator of cytotoxicity. For measurement of the LDH leakage ratio, a commercially available kit (model “LDH Cytotoxicity Detection Kit”, Takara Bio Inc.) was used.
# (§2) Here, ropinirole was added to the medium on days 35 to 40 from the start of the differentiation induction of each iPS cell. Here, it is assumed that days 35 to 40 from the start of differentiation induction correspond to the early stage of the ALS disease.
# (§3) The improvement ratio (%) of the ALS phenotype was calculated by Equation (1).
# (§4) [formula] [In Equation (1), A represents a measurement value of motor neurons induced to differentiate from iPS cells derived from ALS patients in the absence of ropinirole, and B represents a measurement value of motor neurons induced to differentiate from iPS cells derived from ALS patients in the presence of ropinirole, and C represents a measurement value of motor neurons induced to differentiate from iPS cells derived from healthy subjects in the absence of ropinirole.]
# (§5) Subsequently, in the same manner as above, the efficacy in cases of administering lower concentrations of ropinirole was evaluated.
# (§6) Each drug was added to the medium at a final concentration of 10 μM.
# [2] = test system: motor neurons induced to differentiate from iPS cells derived from ALS patients (FUS-ALS) having a mutation in FUS; experiment: Stress granule formation (G3BP immunostaining), FUS-ALS motor neurons
# Protocol: On day 40 from the start of differentiation induction, the formation of stress granules was examined using each differentiation-induced motor neuron in Example I-1. The detection of stress granules was performed by immunostaining with G3BP, which is a marker of stress granules.
# Using the differentiation-induced motor neurons in Example I-1, drugs which cause the ALS phenotype to be restored were screened from existing drug libraries with the neurite length, ectopic localization of FUS protein, stress granule formation, LDH leakage ratio, CV-caspase 3-positive ratio, phosphorylated TDP-43 protein inclusion formation, and the like as indices.
# As a result of the screening, ropinirole was found as a promising therapeutic agent for ALS. Tables 5 and 6 show the improvement ratio (%) in the ALS phenotype due to adding ropinirole to the medium. Here, ropinirole was added to the medium on days 35 to 40 from the start of the differentiation induction of each iPS cell. Here, it is assumed that days 35 to 40 from the start of differentiation induction correspond to the early stage of the ALS disease.
# as §3, §4, §5, §6
# [3] = test system: motor neurons induced to differentiate from iPS cells derived from ALS patients (TDP-43-ALS) having a mutation in TDP-43; experiment: LDH leakage ratio, TDP-43-ALS motor neurons
# Protocol: as §1, §2, §3, §4, §5, §6
# [4] = test system: motor neurons induced to differentiate from iPS cells derived from SALS patients; experiment: LDH leakage ratio, sporadic ALS model (Example III-3); details: final concentration 1 μM, days 35 to 40, measured on day 40, FIG. 12
# Description: (§7) In the same manner as in Example I-1, iPS cells derived from sporadic ALS (may be referred to below as “SALS”) patients were differentiated into motor neurons. All the iPS cells used were derived from dermal fibroblasts. Below, each differentiated motor neuron is identified by the patient number from whom the neuron was derived.
# (§8) In the same manner as in Example II-1, iPS cells derived from sporadic ALS (SALS) patients were induced to differentiate into motor neurons, and then ropinirole with a final concentration of 1 μM was added to the medium. More specifically, for the period of days 35 to 40 from the start of differentiation induction, ropinirole having a final concentration of 1 μM was added to the medium. In addition, a group for which ropinirole was not added to the medium was prepared as a control. In addition, for comparison, iPS cells derived from healthy subjects were differentiated into motor neurons in the same manner as in Example I-1. No ropinirole was added to the medium of these motor neurons. As the iPS cells derived from a healthy subject, the same cells as used in Example I-1 were used.
# Subsequently, on day 40 from the start of differentiation induction, the LDH leakage ratio was measured for each motor neuron in the same manner as in Example I-4.
# FIG. 12 is a graph showing the measurement result of the LDH leakage ratio. […]
# [5] = test system: motor neurons induced to differentiate from iPS cells derived from SALS patients; experiment: CV caspase 3-positive ratio, sporadic ALS model (Example III-2); details: final concentration 1 μM, days 35 to 40, measured on day 40, FIG. 11
# Description: as §7, §8
# Subsequently, on day 40 from the start of differentiation induction, the ratio of CV caspase 3-positive neurons was measured for each motor neuron in the same manner as in Example I-3.
# FIG. 11 is a graph showing the measurement results of the ratio of CV caspase 3-positive neurons. […]
# [6] = test system: motor neurons induced to differentiate from iPS cells derived from SALS patients; experiment: Stress granules, sporadic ALS model (Example III-4); details: final concentration 1 μM, days 35 to 40, measured on day 40, FIG. 13
# Description: as §7
# as §8, with “and” for “and then”
# Subsequently, on day 40 from the start of differentiation induction, the number of stress granules was measured for each motor neuron in the same manner as in Example I-7.
# FIG. 13 is a graph showing the measurement result of the number of stress granules. […]
# [7] = final concentration 0.1 μM, added days 35 to 40
# [8] = final concentration 1 μM, added days 35 to 40
# [9] = final concentration 10 μM, added days 35 to 40
structure (smiles),measurement,setting,value
"CCCN(CCC)CCc1cccc2c1CC(=O)N2 [Ropinirole, 4-(2-di-n-propylaminoethyl)-2(3H)-indole]",LDH leakage ratio improvement ratio,[1]; final concentration 0.1 nM,10.1%
same,LDH leakage ratio improvement ratio,[1]; final concentration 1 nM,31.1%
same,LDH leakage ratio improvement ratio,[1]; final concentration 10 nM,39.4%
same,LDH leakage ratio improvement ratio,[1]; [7],33.5%
same,LDH leakage ratio improvement ratio,[1]; [8],48.0%
same,LDH leakage ratio improvement ratio,[1]; [9],47.6%
same,Stress granule formation improvement ratio,[2]; final concentration 0.1 nM,8.2%
same,Stress granule formation improvement ratio,[2]; final concentration 1 nM,23.2%
same,Stress granule formation improvement ratio,[2]; final concentration 10 nM,39.3%
same,Stress granule formation improvement ratio,[2]; [7],36.6%
same,Stress granule formation improvement ratio,[2]; [8],34.4%
same,Stress granule formation improvement ratio,[2]; [9],66.1%
same,LDH leakage ratio improvement ratio,[3]; final concentration 0.1 nM,10.2%
same,LDH leakage ratio improvement ratio,[3]; final concentration 1 nM,55.2%
same,LDH leakage ratio improvement ratio,[3]; final concentration 10 nM,56.6%
same,LDH leakage ratio improvement ratio,[3]; [7],58.3%
same,LDH leakage ratio improvement ratio,[3]; [8],78.1%
same,LDH leakage ratio improvement ratio,[3]; [9],82.4%
same,LDH leakage ratio,[4],significantly decreased
same,Ratio of CV caspase 3-positive neurons,[5],significantly reduced
same,Number of stress granules,[6],significantly decreased
